Legend:
Assay type in all cases: cell-based
5-HT2A = biological target: T1, 5-HT2A (Homo sapiens, UniProt P28223); experiment: 5-HT2 receptor-mediated Gq activation via Gq/γ1 dissociation BRET; details: for EC50: HEK293T cells; for Hall or N-Hall?: hallucinogenic or non-hallucinogenic effect predicted from level of 5-HT2A agonist efficacy
T1 construct: expressed in transfected cells; host or cells: HEK293T
Source text: (§1) To measure 5-HT2 receptor-mediated Gq activation via Gq/y1 dissociation as measured by Bioluminescence Resonance Energy Transfer (BRET) (McCorvy J D, Wacker D, Wang S, Agegnehu B, Liu J, Lansu K, Tribo AR, Olsen RHJ, Che T, Jin J, Roth BL. Structural determinants of 5-HT2B receptor activation and biased agonism. Nat Struct Mo/Biol. 2018; 25(9): 787-96), HEK293T cells were sub-cultured in Dulbecco's Modified Eagle Medium (DMEM) supplemented with 10% dialyzed fetal bovine serum (FBS) and were co-transfected in a 1:1:1:1 ratio with Rluc8-fused human Gaq (Gaq-Rluc8), a GFP2-fused to the C-terminus of human Gy1(Gy1-GFP2), human GI31, and 5-HT2 receptor using TransiT-2020. After at least 18-24 hours, transfected cells were plated in poly-lysine coated 96-well white clear bottom cell culture plates in DMEM containing 1% dialyzed FBS at a density of 25,000-40,000 cells in 200 μL per well and incubated overnight. The following day, medium was decanted, and cells were washed with 60 μL of drug buffer (1×HBSS, 20 mM HEPES, pH 7.4), then 60 μL of drug buffer was added per well. Cells were pre-incubated at in a humidified atmosphere at 37° C. before receiving drug stimulation. Drug stimulation utilized 30 μL addition of drug (3X) diluted in McCorvy buffer (1×HBSS, 20 mM HEPES, pH 7.4, supplemented with 0.3% BSA fatty acid free, 0.03% ascorbic acid) and plates were incubated at for 1 hour at 37° C. Substrate addition occurred 15 minutes before reading and utilized 10 μL of the Rluc substrate coelenterazine 400a for Gq dissociation BRET^2 (Prolume/Nanolight, 5 μM final concentration). Plates were read for luminescence at 400 nm and fluorescent GFP2 emission at 510 nm at 1 second per well using a Mithras LB940 multimode microplate reader (e.g. one provided by Berthold). The BRET ratios of fluorescence/luminescence were calculated per well and were plotted as a function of drug concentration using Graphpad Prism 8 (Graphpad Software Inc., San Diego, CA). Data were normalized to % 5-HT stimulation and analyzed using nonlinear regression “log(agonist) vs. response” to yield Emax and EC50 parameter estimates. Results are shown in Table 5, where A=<10; B=10 to <100; C=100 to 1000 and D=>1000; +++=>80%; ++=50 to 80%; and +=<50%; NA=No Activity. […] Hallucinogenic (“Hall”) or non-hallucinogenic (“N-Hall”) plastogenic effect is predicted for compounds based on the level 5-HT2A agonist efficacy.

5-HT2B = biological target: T2, 5-HT2B (Homo sapiens, UniProt P41595); experiment: as above; details: HEK293T cells
T2 construct: expressed in transfected cells; host or cells: HEK293T
Source text: as §1

5-HT2C [1] = biological target: T3, 5-HT2C (Homo sapiens, UniProt P28335); experiment: as above; set-up: expressed in transfected cells; host or cells: HEK293T
T3 sequence (P28335 33-458): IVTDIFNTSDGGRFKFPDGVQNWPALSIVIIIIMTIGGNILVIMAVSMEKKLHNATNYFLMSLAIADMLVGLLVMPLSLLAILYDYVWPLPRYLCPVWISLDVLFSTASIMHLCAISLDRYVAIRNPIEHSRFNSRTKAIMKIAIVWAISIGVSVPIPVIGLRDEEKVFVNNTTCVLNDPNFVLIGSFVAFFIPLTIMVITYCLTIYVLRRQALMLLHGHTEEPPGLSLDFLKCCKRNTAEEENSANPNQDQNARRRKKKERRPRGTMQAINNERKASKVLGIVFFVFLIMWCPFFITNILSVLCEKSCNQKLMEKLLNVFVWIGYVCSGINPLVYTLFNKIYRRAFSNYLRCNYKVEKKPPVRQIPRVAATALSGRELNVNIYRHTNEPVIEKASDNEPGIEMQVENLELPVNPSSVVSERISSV
Source text: as §1

5-HT2C [2] = biological target: T3, 5-HT2C; experiment: 5-HT2C Gq signaling bias compared to β-arrestin signaling; set-up: expressed in transfected cells; host or cells: HEK293T (Gq arm; β-arrestin arm not described); details: primary 5-HT2C signaling via Gq compared to β-arrestin
Source text: To measure 5-HT2 receptor-mediated Gq activation via Gq/y1 dissociation as measured by Bioluminescence Resonance Energy Transfer (BRET) (McCorvy J D, Wacker D, Wang S, Agegnehu B, Liu J, Lansu K, Tribo AR, Olsen RHJ, Che T, Jin J, Roth BL. Structural determinants of 5-HT2B receptor activation and biased agonism. Nat Struct Mo/Biol. 2018; 25(9): 787-96), HEK293T cells were sub-cultured in Dulbecco's Modified Eagle Medium (DMEM) supplemented with 10% dialyzed fetal bovine serum (FBS) and were co-transfected in a 1:1:1:1 ratio with Rluc8-fused human Gaq (Gaq-Rluc8), a GFP2-fused to the C-terminus of human Gy1(Gy1-GFP2), human GI31, and 5-HT2 receptor using TransiT-2020. After at least 18-24 hours, transfected cells were plated in poly-lysine coated 96-well white clear bottom cell culture plates in DMEM containing 1% dialyzed FBS at a density of 25,000-40,000 cells in 200 μL per well and incubated overnight. The following day, medium was decanted, and cells were washed with 60 μL of drug buffer (1×HBSS, 20 mM HEPES, pH 7.4), then 60 μL of drug buffer was added per well. Cells were pre-incubated at in a humidified atmosphere at 37° C. before receiving drug stimulation. […] Substrate addition occurred 15 minutes before reading and utilized 10 μL of the Rluc substrate coelenterazine 400a for Gq dissociation BRET^2 (Prolume/Nanolight, 5 μM final concentration). Plates were read for luminescence at 400 nm and fluorescent GFP2 emission at 510 nm at 1 second per well using a Mithras LB940 multimode microplate reader (e.g. one provided by Berthold). The BRET ratios of fluorescence/luminescence were calculated per well and were plotted as a function of drug concentration using Graphpad Prism 8 (Graphpad Software Inc., San Diego, CA). Data were normalized to % 5-HT stimulation and analyzed using nonlinear regression “log(agonist) vs. response” to yield Emax and EC50 parameter estimates. […]

T1 sequence (P28223 whole entry): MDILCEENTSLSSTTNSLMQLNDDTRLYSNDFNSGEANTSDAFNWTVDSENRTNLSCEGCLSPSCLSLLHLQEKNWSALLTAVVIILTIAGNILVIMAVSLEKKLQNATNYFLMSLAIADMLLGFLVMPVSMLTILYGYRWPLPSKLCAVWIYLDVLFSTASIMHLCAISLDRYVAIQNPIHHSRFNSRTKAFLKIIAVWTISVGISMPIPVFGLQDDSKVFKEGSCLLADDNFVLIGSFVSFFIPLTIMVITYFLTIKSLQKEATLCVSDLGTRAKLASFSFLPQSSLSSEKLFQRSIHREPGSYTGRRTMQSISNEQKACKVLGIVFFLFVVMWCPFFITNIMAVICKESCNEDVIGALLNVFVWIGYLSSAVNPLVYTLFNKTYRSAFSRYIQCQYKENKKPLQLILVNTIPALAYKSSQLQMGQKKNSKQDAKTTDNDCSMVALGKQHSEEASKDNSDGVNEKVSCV
T2 sequence (P41595 whole entry): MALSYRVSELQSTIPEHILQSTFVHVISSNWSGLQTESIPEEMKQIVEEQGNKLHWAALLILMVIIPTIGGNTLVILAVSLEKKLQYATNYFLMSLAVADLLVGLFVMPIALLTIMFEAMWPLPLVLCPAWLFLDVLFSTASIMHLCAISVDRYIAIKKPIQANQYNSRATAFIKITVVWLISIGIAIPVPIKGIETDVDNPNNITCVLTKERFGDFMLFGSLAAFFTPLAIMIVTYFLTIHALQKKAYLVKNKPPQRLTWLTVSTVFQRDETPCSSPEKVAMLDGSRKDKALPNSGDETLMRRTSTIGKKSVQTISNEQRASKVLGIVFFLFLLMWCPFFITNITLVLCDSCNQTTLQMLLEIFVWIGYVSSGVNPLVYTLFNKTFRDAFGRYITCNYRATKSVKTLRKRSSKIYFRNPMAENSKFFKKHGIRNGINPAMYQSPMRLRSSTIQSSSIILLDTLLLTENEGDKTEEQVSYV

Structure (SMILES) | EC50 (5-HT2A; Gq dissociation BRET) [nM] | Hall or N-Hall? (5-HT2A) | EC50 (5-HT2B) [nM] | EC50 (5-HT2C [1]) [nM] | 5-HT2C Gq signaling bias? (5-HT2C [2]) | Emax (5-HT2A; Gq dissociation BRET, normalized to % 5-HT stimulation) [%] | Emax (5-HT2C [1]; read-out: 5-HT2C Emax) [%]
CNC[C@H]1C[C@@H]1c1cc(F)ccc1OC | 100 to 1000 | N-Hall | 10 to 100 | 10 to 100 | Yes | – | –
CNCC1CC1c1cc(F)ccc1SC (stereo not drawn) | 100 to 1000 | N-Hall | – | < 10 | Yes | – | –
CSc1ccc(F)cc1C1CC1CN(C)C (stereo not drawn) | > 1000 | N-Hall | – | 10 to 100 | Yes | < 50 | < 50
